Laboratory results reported in patent US11919965B2, “Methods of treating multiple myeloma with bispecific anti-BCMA x anti-CD3 antibodies” (Regeneron Pharmaceuticals, Inc., priority 2019, dated 2024).
Like-named read-outs stand apart in the source and are kept apart here.

Tests used:
[1] = tested on: BCMA-expressing NCI-H929 multiple myeloma tumors; experiment: Xenogenic tumor model, NCI-H929 + human PBMC s.c. in NSG mice, treatment from implantation (Example 10); type: in vivo, mouse; conditions: 4 mg/kg
Protocol: To determine the in vivo efficacy of BCMA×CD3 bispecific antibodies (Abs), a xenogenic tumor study was performed. Immunodeficient NOD.Cg-Prkdc^scidII2rgtm1Wjl/SzJ (NSG) mice were subcutaneously implanted with a mixture of 10×10^6 BCMA-expressing NCI-H929 multiple myeloma cells and 0.5×10^6 human peripheral blood mononuclear cells (PBMC) isolated from a normal donor. […] The mice were administered Abs twice per week for a total of three weeks, and tumor growth was assessed over 40 days. While BCMA^+ tumors grew similarly in the vehicle-, isotype control-, and CD3-binding control-treated mice, both BCMA×CD3 Abs that were tested prevented the growth of tumors in vivo.
(§1) Implantation and measurement of syngeneic tumors: NSG mice were subcutaneously implanted with a mixture of 10×10^6 BCMA-expressing NCI-H929 multiple myeloma cells and 0.5×10^6 PBMC derived from a normal donor. […] The mice were administered Abs twice per week for a total of three weeks. Tumor growth was measured with calipers twice per week for the duration of the experiment. Mice were sacrificed 40 days after tumor implantation.
(§2) Calculation of syngeneic tumor growth and inhibition: In order to determine tumor volume by external caliper, the greatest longitudinal diameter (length in mm) and the greatest transverse diameter (width in mm) were determined. Tumor volumes based on caliper measurements were calculated by the formula: Volume (mm^3)=(length× width^2)/2.

[2] = tested on: primary multiple myeloma blast cells; experiment: FACS cytotoxicity assay, autologous T cell-mediated killing of primary multiple myeloma blast cells; type: cell-based, human; conditions: for EC50: read-out: MM Lysis EC50
Protocol: In order to monitor the specific killing of multiple myeloma cells by flow cytometry, bone marrow mononuclear cells (BMMC) from multiple myeloma patients were plated on human stromal cells (HS5) and rested overnight at 37 C. Separately, matching patient peripheral blood mononuclear cells (PBMC) were thawed and cultured in supplemented RPMI media at 1×10^6 cells/mL overnight at 37° C. in order to enrich for lymphocytes by depleting adherent cells. The next day, BMMC were co-incubated with adherent cell-depleted naïve PBMC on stromal cells (HS5) and a serial 10× dilution of BCMA×CD3 bispecific or 1-arm CD3 isotype control (starting concentration 66.7 nM) at 37° C. Cells were removed from cell culture plates at day 3, 4 or 7 and analyzed by FACS. For the assessment of specificity of killing, multiple myeloma cells were gated as single, live, CD90 negative (to exclude stromal cells), CD2 negative, CD56 positive. CD45 was low on multiple myeloma cells in most samples except MM455. Percent of live target cells was reported for the calculation of adjusted survival as follows: Adjusted survival=(R1/R2)*100, where R1=% live target cells in the presence of antibody, and R2=% live target cells in the absence of test antibody.
T cells were gated as CD2 positive, CD56 negative and either CD4 or CD8 positive. T cell activation was reported as the percent of CD25+CD4 or CD8 T cells out of total CD4 or CD8 T cells.

[3] = tested on: BCMA-expressing NCI-H929 multiple myeloma tumors; experiment: Xenogenic tumor model, NCI-H929 + human PBMC s.c. in NSG mice, dose response, treatment from implantation (Example 11); type: in vivo, mouse
Protocol: To determine the in vivo efficacy of anti-BCMA×anti-CD3 bispecific antibodies (Abs), a xenogenic tumor study was performed. Immunodeficient NOD.Cg-Prkdc^ScidII2rg^tm1Wjl/SzJ (NSG) mice were subcutaneously implanted with a mixture of 10×10^6 BCMA-expressing NCI-H929 human multiple myeloma tumor cells and 0.5×10^6 human peripheral blood mononuclear cells (PBMC) isolated from a normal, healthy donor. […] The mice were administered these Abs twice per week for a total of seven doses, and tumor growth was assessed over 60 days. While BCMA+NCI-H929 tumors grew similarly in the vehicle- and CD3-binding control-treated mice, both anti-BCMA×anti-CD3 Abs that were tested prevented the growth of tumors in a dose-dependent manner in vivo.
as §1, with “xenogenic” for “syngeneic”, “normal, healthy” for “normal”, “seven doses.” for “three weeks.”, “experiment.” for “experiment. Mice were sacrificed 40 days after tumor implantation.”
as §2, with “xenogenic” for “syngeneic”

## REGN5459: anti-BCMA×anti-CD3 bispecific antibody: mAb21581 BCMA heavy chain, mAb7221G20 CD3 heavy chain and common light chain; SEQ ID NOs 126, 128, 129
[1]
  Average Tumor Size (mm3) ± SEM on Day 4: 26.5 ± 6.2 mm3
  Average Tumor Size (mm3) ± SEM on Day 7: 0 ± 0 mm3
  Average Tumor Size (mm3) ± SEM on Day 11: 0 ± 0 mm3
  Average Tumor Size (mm3) ± SEM on Day 14: 0 ± 0 mm3
  Average Tumor Size (mm3) ± SEM on Day 18: 0 ± 0 mm3
  Average Tumor Size (mm3) ± SEM on Day 21: 0 ± 0 mm3
  Average Tumor Size (mm3) ± SEM on Day 28: 0 ± 0 mm3
  Average Tumor Size (mm3) ± SEM on Day 40: 0 ± 0 mm3
[2]; Sample MM2, E:T 1.4, 7 days
  EC50: 7.24 nM
[2]; Sample MM2, newly diagnosed, E:T 1.4, 7 days
  % MM lysis at 66 nM: 85%
[2]; Sample MM369, E:T 0.3, 3 days
  EC50: 0.496 nM
[2]; Sample MM369, newly diagnosed, E:T 0.3, 3 days
  % MM lysis at 66 nM: 94%
[2]; Sample MM453, E:T 2.4, 3 days
  EC50: 1.19 nM
[2]; Sample MM453, newly diagnosed, E:T 2.4, 3 days
  % MM lysis at 66 nM: 80%
[2]; Sample MM455, E:T 0.4, 3 days
  EC50: 79.4 nM
[2]; Sample MM455, progression, treated, E:T 0.4, 3 days
  % MM lysis at 66 nM: 52%
[3]; 0.04 mg/kg
  Average Tumor Size (mm3) ± SEM on Day 4: 33.0 ± 4.4 mm3
  Average Tumor Size (mm3) ± SEM on Day 7: 8.4 ± 4.0 mm3
  Average Tumor Size (mm3) ± SEM on Day 12: 0 ± 0 mm3
  Average Tumor Size (mm3) ± SEM on Day 19: 23.1± 23.1 mm3
  Average Tumor Size (mm3) ± SEM on Day 22: 69.5 ± 69.5 mm3
  Average Tumor Size (mm3) ± SEM on Day 26: 156.7 ± 156.7 mm3
  Average Tumor Size (mm3) ± SEM on Day 29: 226.6 ± 226.6 mm3
[3]; 0.4 mg/kg
  Average Tumor Size (mm3) ± SEM on Day 4: 19.6 ± 4.4 mm3
  Average Tumor Size (mm3) ± SEM on Day 12: 0 ± 0 mm3
  Average Tumor Size (mm3) ± SEM on Day 15: 0 ± 0 mm3
  Average Tumor Size (mm3) ± SEM on Day 19: 0 ± 0 mm3
  Average Tumor Size (mm3) ± SEM on Day 22: 0 ± 0 mm3
  Average Tumor Size (mm3) ± SEM on Day 26: 0 ± 0 mm3
  Average Tumor Size (mm3) ± SEM on Day 29: 0 ± 0 mm3
  Average Tumor Size (mm3) ± SEM on Day 34: 0 ± 0 mm3
  Average Tumor Size (mm3) ± SEM on Day 39: 0 ± 0 mm3
  Average Tumor Size (mm3) ± SEM on Day 42: 0 ± 0 mm3
  Average Tumor Size (mm3) ± SEM on Day 46: 0 ± 0 mm3
  Average Tumor Size (mm3) ± SEM on Day 55: 0 ± 0 mm3
  Average Tumor Size (mm3) ± SEM on Day 60: 0 ± 0 mm3
[3]; 4 mg/kg
  Average Tumor Size (mm3) ± SEM on Day 4: 21.8 ± 3.4 mm3
  Average Tumor Size (mm3) ± SEM on Day 7: 8.0 ± 4.3 mm3
  Average Tumor Size (mm3) ± SEM on Day 12: 1.7 ± 1.7 mm3
  Average Tumor Size (mm3) ± SEM on Day 15: 0 ± 0 mm3
  Average Tumor Size (mm3) ± SEM on Day 19: 0 ± 0 mm3
  Average Tumor Size (mm3) ± SEM on Day 22: 0 ± 0 mm3
  Average Tumor Size (mm3) ± SEM on Day 26: 0 ± 0 mm3
  Average Tumor Size (mm3) ± SEM on Day 29: 0 ± 0 mm3
  Average Tumor Size (mm3) ± SEM on Day 34: 0 ± 0 mm3
  Average Tumor Size (mm3) ± SEM on Day 39: 0 ± 0 mm3
  Average Tumor Size (mm3) ± SEM on Day 42: 0 ± 0 mm3
  Average Tumor Size (mm3) ± SEM on Day 46: 0 ± 0 mm3
  Average Tumor Size (mm3) ± SEM on Day 55: 0 ± 0 mm3
  Average Tumor Size (mm3) ± SEM on Day 60: 0 ± 0 mm3
